Common to all, as to type: ADME, organism-based
Holding throughout (conditions): in vivo

Data set [1] is described as follows: AUC in rat at 2 mg/kg, po.
The test system of data set [2] is Plasma. Briefly: Unbound plasma concentration in mouse.
A short description of data set [3]: Volume of distribution in iv dosed rat.
Data set [4] is described as follows: Oral bioavailability in rat at 2 mg/kg.

By AUC is commonly meant concentration integrated over time. Low readings indicate less exposure, high ones more exposure. By Vd is commonly meant the apparent volume that relates the amount in the body to the concentration in plasma or blood. A high value points to wide distribution into tissue. By bioavailability is commonly meant dose-corrected exposure relative to a reference, in per cent.

The structures appear in SMILES notation.

In turn, `COc1ncc(Nc2nc3ccc(C(C)(C)O)cn3c2-c2nc(C)nc(N)n2)cc1F` displayed an exposure (AUC) in data set [1] of 640 ng·h/mL. Moreover, the “Cp(f)” value in data set [2] was 84 nM. Also, in data set [3], the Vd is 4.2 L/kg. In addition, in data set [4], the bioavailability was 51%.

(Values after ChEMBL document CHEMBL3616407, “The imidazo[1,2-a]pyridine ring system as a scaffold for potent dual phosphoinositide-3-kinase (PI3K)/mammalian target of rapamycin (mTOR) inhibitors” (Bioorg Med Chem Lett, 2015).)
